# Reference: paper PMC6796659, “Topoisomerase IB poisons induce histone H2A phosphorylation as a response to DNA damage in Leishmania infantum” (International Journal for Parasitology: Drugs and Drug …, 2019)
# Read-outs that look alike come from different tables or passages of the source.
# Columns and labels:
# [1] = tested on: iRFP L. infantum promastigotes; assay: Antileishmanial activity on free-living iRFP L. infantum promastigotes (infrared fluorescence viability); assay type: cell-based; settings: Leishmania infantum, 72 h, 26 °C
# Method: Histone phosphorylation assays were performed in promastigotes of L. infantum BCN 150 strain, whereas the antiparasitic activity of the compounds was assessed on the transgenic strain that constitutively expresses the irfp gene encoding the infrared iRFP protein (iRFP L. infantum strain) ([Calvo-Álvarez et al., 2015]), which is derived from L. infantum BCN 150. Both strains were grown at 26 °C in M-199 medium (Gibco) supplemented with 25 mM HEPES pH 7.2, 0.1 mM adenine, 0.0005% (w/v) hemin, 2 μg/mL biopterin, 0.0001% (w/v) biotin, 10% (v/v) heat-inactivated fetal bovine serum (FBS) and an antibiotic cocktail comprising 50 U/mL penicillin and 50 μg/mL streptomycin.
# (§1) The antileishmanial activity of the compounds was tested both in promastigotes and in amastigotes infecting mouse splenocytes. For this purpose, 384-well optical bottom black plates (Thermo Scientific) were seeded either with free-living iRFP L. infantum promastigotes or with splenic explants infected with iRFP L. infantum amastigotes, which were incubated at 26 °C or 37 °C, respectively. The viability of both iRFP L. infantum stages was measured by recording the fluorescence emitted by viable cells at 708 nm in an Odyssey (Li-Cor) infrared imaging system after a 72-h period of incubation with different concentrations of the compounds. Dose-response curves were obtained by plotting the infrared fluorescence emission of viable parasites vs. different concentrations of testing compounds and were fitted by nonlinear analysis using the Sigma-Plot 10.0 statistical package. The reduction of infrared emission with respect to the negative control was used to determine the 50% effective concentration to kill the parasites (EC50). Both controls and treated groups were tested with DMSO (drug vehicle) concentrations below 0.1%. All compounds and controls were assayed in triplicate.
# [2] = tested on: iRFP L. infantum amastigotes infecting mouse splenocytes; assay: Antileishmanial activity on iRFP L. infantum amastigotes in ex vivo murine splenic explants; assay type: cell-based, Leishmania infantum; settings: for SI (Selectivity Index): CC50 (splenocytes)/EC50 (amastigotes); for EC50: Leishmania infantum, Splenocyte, 72 h, read-out: EC50 (μM) L. infantum amastigotes
# Method: Five-week BALB/c female mice infected intraperitoneally with 1.5 × 10^9 metacyclic iRFP L. infantum promastigotes were sacrificed to eviscerate their spleens, which were processed to obtain a suspension of primary splenocytes. Briefly, freshly dissected spleens were washed with cold phosphate-buffered saline (PBS), cut in small pieces and incubated for 20 min with 5 mL of 2 mg/mL collagenase D (Sigma) prepared in buffer (10 mM HEPES, pH 7.4, 150 mM NaCl, 5 mM KCl, 1 mM MgCl2 and 1.8 mM CaCl2). Then, the cell suspension was passed through a 100 μm cell strainer, harvested by centrifugation (500×g for 7 min at 4 °C), washed twice with PBS, and resuspended in RPMI medium (Gibco) supplemented with 10 mM HEPES, 1 mM sodium pyruvate, 1xRPMI 1640 vitamin mix, 10% (v/v) FBS, 50 U/mL penicillin and 50 μg/mL streptomycin. The cell suspension was cultured in 384-well optical bottom black plates (Thermo Scientific) at 37 °C under 5% CO2 atmosphere.
# as §1
# [3] = Cytotoxicity on uninfected mouse splenocytes (Alamar Blue); assay type: cell-based; settings: BALB/c, freshly isolated uninfected mouse splenocytes, non-infected mouse splenocytes, read-out: CC50 (μM) Murine Splenocytes
# Method: Finally, the cytotoxicity of the compounds was assessed on freshly-isolated mouse splenocytes, which were obtained from uninfected BALB/c mice according to the protocol previously described. Viability of uninfected splenocytes was used to determine the cytotoxic concentration 50 (CC50) by means of the Alamar Blue staining method, according to manufacturer's recommendations (Invitrogen). Selectivity index (SI) for each compound was calculated as the ratio between the CC50 value obtained for splenic cells and the EC50 value for amastigotes.
# [4] = tested on: Leishmania topoisomerase IB (LTopIB); assay: Relaxation of supercoiled pSK DNA by recombinant LTopIB; assay type: biochemical; parameters: key: +++: inhibition at 1 μM; ++: inhibition at 10 μM; +: inhibition at 100 μM; 0: no inhibition
# Method: (§2) Expression and purification of LTopIB and hTopIB were carried out according to a previously standardized protocol ([Villa et al., 2003]). The effect of indenoisoquinolines (compounds 1 to 20) on recombinant LTopIB and hTopIB was determined by measuring the relaxation of negatively supercoiled pBluescript-SK DNA plasmid (pSK). Briefly, in a total volume of 20 μL, 100 U of recombinant TopIB were incubated with 0.5 μg of pSK DNA in 10 mM Tris-HCl buffer (pH 7.5), 5 mM MgCl2, 5 mM dithiothreitol (DTT), 0.1 mM EDTA, […] bovine serum albumin, and 150 mM KCl. Different concentrations of indenoisoquinolines were also added. Following a 4-min incubation period at 25 °C, reactions were stopped with 1% (w/v) SDS, and incubated for one extra hour at 37 °C in the presence of 1 mg/mL proteinase K. Subsequently, samples were extracted with 1 vol phenol-chloroform mixture and were loaded on a 1% agarose gel containing 0.1 μg/mL ethidium bromide. The gel was run for 16 h at 4 V/cm, and the images were acquired using a G-Box system (Syngene, United Kingdom).
# [5] = target: T1, human Top IB (hTopIB) (Homo sapiens, UniProt P11387); assay: Relaxation of supercoiled pSK DNA by recombinant hTopIB; assay type: biochemical
# T1 construct: made in house
# T1 sequence (P11387 1-765): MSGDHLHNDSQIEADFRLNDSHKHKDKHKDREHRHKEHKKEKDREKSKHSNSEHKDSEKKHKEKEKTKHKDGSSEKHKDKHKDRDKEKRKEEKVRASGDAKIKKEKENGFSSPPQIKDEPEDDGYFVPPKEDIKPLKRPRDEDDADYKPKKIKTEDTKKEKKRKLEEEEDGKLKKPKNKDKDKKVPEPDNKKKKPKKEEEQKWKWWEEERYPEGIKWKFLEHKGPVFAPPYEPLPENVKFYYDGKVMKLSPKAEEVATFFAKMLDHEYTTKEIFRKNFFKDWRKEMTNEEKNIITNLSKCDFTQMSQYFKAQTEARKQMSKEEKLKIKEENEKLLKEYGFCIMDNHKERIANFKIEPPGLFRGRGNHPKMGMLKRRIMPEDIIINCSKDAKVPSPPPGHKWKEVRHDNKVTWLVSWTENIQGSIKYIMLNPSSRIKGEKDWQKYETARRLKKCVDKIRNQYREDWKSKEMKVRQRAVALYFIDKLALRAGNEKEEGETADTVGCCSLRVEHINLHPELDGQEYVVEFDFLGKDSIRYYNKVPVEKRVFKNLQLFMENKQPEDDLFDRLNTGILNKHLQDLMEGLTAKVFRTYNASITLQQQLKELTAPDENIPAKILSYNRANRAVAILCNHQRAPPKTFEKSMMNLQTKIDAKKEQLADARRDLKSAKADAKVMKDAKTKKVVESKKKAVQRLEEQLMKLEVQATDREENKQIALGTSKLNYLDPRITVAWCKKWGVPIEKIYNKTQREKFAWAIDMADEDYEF
# Method: as §2
# [6] = splenic-infecting iRFP L. infantum amastigotes, 37 °C
SMILES,EC50 [1],SI (Selectivity Index) [2],"EC50 [2, 6]",CC50 [3],LTopIB inhibition ([4]; Table 1),hTopIB inhibition ([5]; Table 1),EC50 [2],LTopIB inhibition ([4]; Table 2),hTopIB inhibition ([5]; Table 2),LTopIB inhibition ([4]; Table 3),hTopIB inhibition ([5]; Table 3)
"C[C@@H]1[C@H](O)[C@@H](C)/C=C/C=C/C=C/C=C/C=C/C=C/C=C/[C@H](O[C@@H]2O[C@H](C)[C@@H](O)[C@H](N)[C@@H]2O)C[C@@H]2O[C@](O)(C[C@@H](O)C[C@@H](O)[C@H](O)CC[C@@H](O)C[C@@H](O)CC(=O)O[C@H]1C)C[C@H](O)[C@H]2C(=O)O [AMB, amphotericin B, reference compound]",0.8 ± 0.1 µM,>62,0.3 µM,> 20 µM,,,,,,,
NCCn1c2c(c3ccccc3c1=O)C(=O)c1ccccc1-2 [Compound 1],0.94 ± 0.03 µM,24.4,0.04 ± 0.09 µM,1.1 ± 0.06 µM,+++ (inhibition at 1 μM),++ (inhibition at 10 μM),,,,,
COC(=O)c1ccc2c(c1)C(=O)c1c-2n(CCCN)c(=O)c2cc([N+](=O)[O-])ccc12 [Compound 4],1.1 ± 0.07 µM,4.2,0.14 ± 0.08 µM,0.59 ± 0.02 µM,++ (inhibition at 10 μM),+++ (inhibition at 1 μM),,,,,
CCOc1ccc2c(c1)C(=O)c1c-2n(CCCN)c(=O)c2cc([N+](=O)[O-])ccc12 [Compound 5],0.54 ± 0.05 µM,4.4,0.08 µM,0.35 ± 0.03 µM,++ (inhibition at 10 μM),+++ (inhibition at 1 μM),,,,,
NCCCn1c2c(c3ccc([N+](=O)[O-])cc3c1=O)C(=O)c1cc(Br)ccc1-2 [Compound 6],0.52 ± 0.03 µM,6.2,0.13 ± 0.03 µM,0.81 ± 0.09 µM,+++ (inhibition at 1 μM),+++ (inhibition at 1 μM),,,,,
NCCCn1c2c(c3ccc([N+](=O)[O-])cc3c1=O)C(=O)c1cc3c(cc1-2)OCO3 [Compound 8],0.06 ± 0.01 µM,2.8,0.02 ± 0.05 µM,0.05 ± 0.01 µM,+++ (inhibition at 1 μM),+++ (inhibition at 1 μM),,,,,
NCCCCn1c2c(c3ccccc3c1=O)C(=O)c1ccccc1-2 [Compound 9],0.43 ± 0.08 µM,,,2.11 ± 0.22 µM,+++ (inhibition at 1 μM),+++ (inhibition at 1 μM),0.73 ± 0.01 µM,,,,
NCCCCCn1c2c(c3ccccc3c1=O)C(=O)c1ccccc1-2 [Compound 10],2.4 ± 1.03 µM,,2.29 ± 1.05 µM,1.35 ± 0.19 µM,+++ (inhibition at 1 μM),+++ (inhibition at 1 μM),,,,,
O=C1c2ccccc2-c2c1c1ccc([N+](=O)[O-])cc1c(=O)n2CCCn1ccnc1 [Compound 11],0.45 ± 0.5 µM,11,0.06 ± 0.02 µM,0.71 ± 0.01 µM,,,,+++ (inhibition at 1 μM),+++ (inhibition at 1 μM),,
O=C1c2cccnc2-c2c1c1ccccc1c(=O)n2CCCn1ccnc1 [Compound 13],2.89 ± 0.14 µM,4.1,0.59 ± 0.6 µM,2.4 ± 0.35 µM,,,,+ (inhibition at 100 μM),++ (inhibition at 10 μM),,
COc1cc2c3c(n(CCCn4ccnc4)c(=O)c2cc1OC)-c1cc2c(cc1C3=O)OCO2 [Compound 14],1.85 ± 0.18 µM,3.0,0.01 µM,0.03 µM,,,,0,+++ (inhibition at 1 μM),,
O=C1c2ccccc2-c2c1c1ccc([N+](=O)[O-])cc1c(=O)n2CCCN1CCOCC1 [Compound 15],> 10 µM,30,0.6 ± 0.42 µM,18 ± 5.3 µM,,,,,,0,+++ (inhibition at 1 μM)
COc1ccc2c(c1)C(=O)c1c-2n(CCCN2CCOCC2)c(=O)c2cc([N+](=O)[O-])ccc12 [Compound 16],> 10 µM,,1.86 ± 0.29 µM,0.59 ± 0.08 µM,,,,,,0,+++ (inhibition at 1 μM)
